The values that follow come from patent publication US20120238566A1, “USE OF CELL AUTOPHAGY (TYPE II CELL APOPTOSIS) INHIBITORS” (priority 2009, published 2012).

The subject of assay [1] is A549 cells. The class given is cell-based.
In assay [2] the test system is LC3. Set-up: species or system Balb/c mice. Conditions: mouse, in vivo.
Assay [3] relates to Balb/c mice. Conditions: mouse, in vivo.
Assay [4] concerns A549 cells. The class given is cell-based. This is another data set of the same source.
The subject of assay [5] is Balb/c mice lung. Conditions: mouse, in vivo.
The test system of assay [6] is Balb/c mice lung. Conditions: mouse, in vivo. The source holds these as a separate data set.
Assay [7] has as its system A549 cells. The class given is cell-based. This is another data set of the same source.
The subject of assay [8] is Balb/c mice lung. Conditions: mouse, in vivo. This is another data set of the same source.
In assay [9] the test system is Balb/c mice lung. Conditions: mouse, in vivo. This is another data set of the same source.

“Also recorded” adds a separate entry of the source. Read-outs that look alike come from different tables or passages of the source.

Consider `Cn1cnc(N)c2ncnc1-2` [3-MA, 3-methyladenine], for which, in assay [1], the “percentage of cells with EGFP-LC3 agglutination” value is recorded as “can be relieved”. The “content of LC3 II in mice lung tissue (ratio to β-actin)” value in assay [2] was “relieved the occurrence of autophagy”. In addition, the “survival curve of mice” value in [3] was “can significantly relieve the death of mice; also recorded: has effect on delaying the death of mice”. In addition, the “percentage of A549 cells with autophagy induced by PAMAM G3, electron microscope” value in [4] is given as “can be relieved; also recorded: reduced the percentage of cells with autophagy”. The “counts of inflammatory cells in lung pathological sections” value in [5] was “reduced the augmentation of the counts inflammatory cells”. Also, in assay [6], the lung elasticity entry is “relieves the changes of lung elasticity; also recorded: has some effect on relieving the induced injury”. For the same compound, in [7], the “survival rate of A549 cells” value is given as “decreases the cell death; also recorded: can significantly reduce cell death”. Moreover, the lung wet/dry ratio entry in assay [8] was “decreased the augmentation of wet/dry ratio”; in assay [8] (ip), “relieved the increased lung wet/dry ratio”. Also, the “lung injury, pathological sections” value in assay [9] was “has some effect on ameliorating the lung injury”.
As to `C[S+]([O-])c1ccc(-c2nc(-c3ccncc3)c(-c3ccc(F)cc3)[nH]2)cc1` (stereo not shown) [SB203580], the “cell autophagy induced by inactivated H5N1 avian influenza virus, electron microscope” value in assay [4] is on record as “reduced cell autophagy; also recorded: can effectively inhibit the occurrence of autophagy”. Moreover, the “counts of inflammatory cells in lung pathological sections” value in [5] is on record as “reduced the counts of infiltrated inflammatory cells; also recorded: reduced the augmentation of infiltrated inflammatory cells”. Also, the “lung injury, pathological sections” value in assay [9] is “has some effect on ameliorating the lung injury; also recorded: has some effect on amelioratiing the lung injury”.
